According to article PMC5100701 (Bioconjugate chemistry, 2016):
Where two headings read alike, the source gives them in different places.

Legend:
human MMP-12 [1] = molecular target: T1, human MMP-12 (Homo sapiens, UniProt P39900); test: in vitro binding; format: biochemical; conditions: read-out: Ki (nM)/hMMP12; 50 mM Tris/HCl buffer, pH 6.8, 10 mM CaCl2, 25 °C; mean ± SD of three experiments
human MMP-12 [2] = molecular target: T1, human MMP-12; test: ability to block MMP-12 activity in presence of human serum albumin; format: biochemical; conditions: hSA 5 μM
human MMP-12 [3] = molecular target: T1, human MMP-12; conditions: read-out: Ki toward human MMP-12; cited from earlier work
atherosclerotic plaque = conditions: mouse model of atherosclerosis; cited from earlier work
[4] = blood clearance after intravenous injection in mice; format: in vivo; conditions: C57BL/6 mice, 1 nmol injected, n=3, 4h post-injection
[5] = biodistribution: tissue fluorescence in harvested organs; format: in vivo, C57BL/6 mice; conditions: organs harvested 4h post-injection, 1 nmol injected
[6] = LC/MS analysis of mouse urine; format: in vivo, C57BL/6 mice; conditions: mouse urine 4h after injection

T1 sequence (P39900 106-470): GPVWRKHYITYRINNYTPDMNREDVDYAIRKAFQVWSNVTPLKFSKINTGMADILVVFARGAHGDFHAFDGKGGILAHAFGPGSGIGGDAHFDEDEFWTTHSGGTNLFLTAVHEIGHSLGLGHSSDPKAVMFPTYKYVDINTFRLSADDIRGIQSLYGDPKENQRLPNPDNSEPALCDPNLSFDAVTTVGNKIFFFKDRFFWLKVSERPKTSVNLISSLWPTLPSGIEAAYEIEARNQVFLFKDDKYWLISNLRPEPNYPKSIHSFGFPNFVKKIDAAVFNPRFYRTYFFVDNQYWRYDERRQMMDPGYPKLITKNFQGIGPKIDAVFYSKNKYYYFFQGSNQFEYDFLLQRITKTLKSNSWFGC

SMILES: NC(=O)[C@H](CCC(=O)O)NC(=O)[C@H](CCC(=O)O)NC(=O)[C@H](Cc1cc(-c2ccc(-c3cccc(Cl)c3)cc2)no1)CP(=O)(O)c1ccc(Br)cc1 [RXP470.1, reference compound]
- Ki (human MMP-12 [1]): 0.26 ± 0.05 nM
- shift of Ki in presence of human serum albumin (human MMP-12 [2]): 8.5 fold
- Ki (human MMP-12 [3]): 0.26 nM
- effect on atherosclerotic plaque (atherosclerotic plaque): inhibit atherosclerotic plaque growth

SMILES: CC[N+]1=C(C=CC=CC=C2N(CCCCCC(=O)NCCOCCOCCNC(=O)[C@H](CCC(=O)O)NC(=O)[C@H](CCC(=O)O)NC(=O)[C@H](Cc3cc(-c4ccc(-c5cccc(Cl)c5)cc4)no3)CP(=O)(O)c3ccc(Br)cc3)c3ccc4c(S(=O)(=O)O)cc(S(=O)(=O)[O-])cc4c3C2(C)C)C(C)(C)c2c1ccc1c(S(=O)(=O)O)cc(S(=O)(=O)O)cc21 [probe 1]
- shift of Ki in presence of human serum albumin (human MMP-12 [2]): 88 fold
- percentage of injected dose remaining in the bloodstream 4h post-injection [4]: 25.1±2.9 %ID
- tissue fluorescence in liver, spleen, kidneys and lungs [5]: higher fluorescence signals in the kidneys relative to the liver

SMILES: CC1(C)C(=CC=C2CCCC(C=CC3=[N+](CCCCCC(=O)NCCOCCOCCNC(=O)[C@H](CCC(=O)O)NC(=O)[C@H](CCC(=O)O)NC(=O)[C@H](Cc4cc(-c5ccc(-c6cccc(Cl)c6)cc5)no4)CP(=O)(O)c4ccc(Br)cc4)c4ccc(S(=O)(=O)O)cc4C3(C)C)=C2Oc2ccc(S(=O)(=O)O)cc2)N(CCCCS(=O)(=O)O)c2ccc(S(=O)(=O)[O-])cc21 [probe 4]
- conversion into a second metabolite in urine [6]: about 50%
- tissue fluorescence in liver, spleen, kidneys and lungs [5]: cleared by the kidneys, but its uptake by the liver is not negligible
